# Reference: ChEMBL document CHEMBL5131523, “Long-Awaited Small-Molecule Drug Candidate for Drugging the Next Undruggable KRASG12D Mutant in Cancer Therapy” (ACS Med Chem Lett, 2022)
# Tested on: BaF3
# Test: Antiproliferative activity against mouse BaF3 cells harboring KRAS G12D mutant assessed as inhibition of cell proliferation incubated for 3 days by CellTiter-Glo assay
# Type: toxicity, cell-based
# Conditions: BaF3, 72 h
row,SMILES,IC50 [nM]
1,Fc1c(-c2cccc3cccc(Cl)c23)ncc2c(N3C[C@H]4CC[C@@H](C3)N4)nc(OCC34CCCN3CCC4)nc12,≤ 500
2,CCOc1nc(-c2cc(O)cc3ccc(F)c(Cl)c23)c(F)c2nc(OC[C@@]34CCCN3C[C@H](F)C4)nc(N3C[C@H]4CC[C@@H](C3)N4)c12,≤ 500
3,Cc1cccc2cc(O)cc(-c3nc(C)c4c(N5C[C@H]6CC[C@@H](C5)N6)nc(OC[C@@]56CCCN5C[C@H](F)C6)nc4c3F)c12,≤ 500
4,Cc1nc(-c2cc(O)cc3cccc(Cl)c23)c(F)c2nc(OC[C@@]34CCCN3C[C@H](F)C4)nc(N3C[C@H]4CC[C@@H](C3)N4)c12,≤ 500
5,C#Cc1c(F)ccc2cc(O)cc(-c3nc(OC(C)C)c4c(N5C[C@H]6CC[C@@H](C5)N6)nc(C(F)F)nc4c3F)c12,≤ 500
6,C#Cc1c(F)ccc2cc(O)cc(-c3nc(OCC(F)F)c4c(N5C[C@H]6CC[C@@H](C5)N6)nc(OC[C@@]56CCCN5C[C@H](F)C6)nc4c3F)c12,≤ 500
7,C#Cc1c(F)ccc2cc(O)cc(-c3nc(OCC)c4c(N5CCNC6(CCC6)C5)nc(OC[C@@]56CCCN5C[C@H](F)C6)nc4c3F)c12,≤ 500
8,Oc1cc(-c2nc(Cl)c3c(N4C[C@H]5CC[C@@H](C4)N5)nc(OC[C@@]45CCCN4C[C@H](F)C5)nc3c2F)c2ccccc2c1,≤ 500
9,C#Cc1c(F)ccc2cc(O)cc(-c3nc(OC(C)C)c4c(N5C[C@H]6CC[C@@H](C5)N6)nc(NC)nc4c3F)c12,500
10,C#Cc1c(F)ccc2cc(O)cc(-c3nc(OC(F)F)c4c(N5C[C@H]6CC[C@@H](C5)N6)nc(OC[C@@]56CCCN5C[C@H](F)C6)nc4c3F)c12,≤ 500
11,C#Cc1c(F)ccc2cc(O)cc(-c3nc(OC(C)C)c4c(N5C[C@H]6CC[C@@H](C5)N6)nc(OC[C@@]56CCCN5C[C@H](F)C6)nc4c3F)c12,≤ 500
12,Oc1cc(-c2nc(O)c3c(N4C[C@H]5CC[C@@H](C4)N5)nc(OC[C@@]45CCCN4C[C@H](F)C5)nc3c2F)c2c(Cl)c(F)ccc2c1,500
